Experimental findings from patent publication US8822486B2, “Spiropiperidine compounds” (Eli Lilly and Company, priority 2009, dated 2014) are described below.

The target in one assay is T1, human GPR40 (Homo sapiens, UniProt O14842).
T1 construct: expressed in transfected cells; host or cells: HEK293
Kind of assay: Calcium Flux Primary Assay. It counts as cell-based. As to the method: Calcium Flux Primary Assay
HEK293 cells over expressing the human GPR40 cDNA maintained in Dulbecco's modified Eagle's medium with F12 medium in 3:1 ratio supplemented with 10% FBS and 800 μg/ml geneticin at 37° C. and 5% CO2 are employed for the study. Agonist assays are performed using a Calcium 4 Dye assay kit (Molecular Devices) in the presence (0.1%) or absence of fatty acid free BSA in the assay buffer (1×HBSS (Hank's Balanced Salt Solution) & 20 mM HEPES (4-(2-hydroxyethyl)-1-piperazineethanesulfonic acid). Receptor activation is measured as an increase in intracellular calcium using the Fluorometric Imaging Plate Reader (FLIPR). Maximum change in fluorescence over the base line is used to determine agonist response. EC50 (effective concentration at half the maximal response) value of the compound is calculated using Excel Fit software (version 4; IDBS) by plotting concentration vs relative fluorescence units (RFUs).
(In general: Calcium assays in cells follow changes in intracellular calcium, usually with a dye or a luminescent sensor.)

The target of a further assay is T2, PPARγ (Homo sapiens, UniProt P37231).
T2 sequence (P37231 1-505): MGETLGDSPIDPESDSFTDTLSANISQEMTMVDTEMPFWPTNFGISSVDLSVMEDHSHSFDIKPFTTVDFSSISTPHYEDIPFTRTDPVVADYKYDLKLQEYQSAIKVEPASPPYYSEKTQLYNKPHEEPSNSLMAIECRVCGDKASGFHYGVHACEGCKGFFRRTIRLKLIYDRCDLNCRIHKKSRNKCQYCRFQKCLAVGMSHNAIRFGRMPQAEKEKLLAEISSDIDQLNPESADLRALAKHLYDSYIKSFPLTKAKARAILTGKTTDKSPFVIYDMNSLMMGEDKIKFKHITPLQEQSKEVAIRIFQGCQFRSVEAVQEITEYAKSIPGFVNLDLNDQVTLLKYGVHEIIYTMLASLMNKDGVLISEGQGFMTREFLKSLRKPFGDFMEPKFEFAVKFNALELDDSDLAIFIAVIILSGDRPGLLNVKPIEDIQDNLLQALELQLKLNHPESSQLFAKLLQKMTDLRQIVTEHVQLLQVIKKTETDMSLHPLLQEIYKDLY
T2 sequence (P19793 1-462 partner): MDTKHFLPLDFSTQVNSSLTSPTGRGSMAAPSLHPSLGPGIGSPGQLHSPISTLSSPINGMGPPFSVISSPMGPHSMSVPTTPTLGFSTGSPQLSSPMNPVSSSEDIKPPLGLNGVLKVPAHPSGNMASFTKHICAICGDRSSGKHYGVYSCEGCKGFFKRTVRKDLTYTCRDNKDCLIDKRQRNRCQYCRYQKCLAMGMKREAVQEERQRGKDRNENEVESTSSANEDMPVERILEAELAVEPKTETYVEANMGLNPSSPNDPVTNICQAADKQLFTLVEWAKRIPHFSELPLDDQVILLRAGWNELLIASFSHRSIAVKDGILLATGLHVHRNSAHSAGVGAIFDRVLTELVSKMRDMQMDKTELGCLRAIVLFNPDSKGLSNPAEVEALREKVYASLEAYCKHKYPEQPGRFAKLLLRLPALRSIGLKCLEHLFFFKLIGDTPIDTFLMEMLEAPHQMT
The assay can be described thus: PPARγ binding assay (SPA). More on the design: made in house; host or cells: HEK293 (cell lysates). The note with it: concentrations up to 10 μM. The procedure: Because GPR40 is known to be activated by ligands to PPARγ exemplified compounds are examined in PPARα, PPARδ, and PPARγ binding and functional assays to determine the selectivity of exemplified compounds for GPR40. Compounds exemplified herein are tested essentially as described below for PPAR binding and generally have binding values greater than 1000 nM with 10 μM concentrations of test compound and are thus considered negative for PPAR activity.
Binding affinities of compounds for the PPAR α, δ, and γ receptors are assessed using Scintillation Proximity Assay (SPA) technology. Biotinylated oligonucleotide Direct Repeat 2 (DR2) is used for binding the receptors to Yttrium silicate streptavidin-coated SPA beads. […] Non-specific binding is determined in the presence of 10,000 nM of the unlabeled PPAR α/δ dual agonist reference compound for the alpha and delta receptor assays and the PPARγ agonist reference compound for the gamma receptor assay. The binding reaction (100 μl per well in a 96 well [Costar 3632] plate) is incubated for 10 h and counted disintegration per minutes (dpm) on a Wallac Microbeta. Receptor binding affinity (IC50) for the compounds is determined by fitting an 11 point concentration-response curve with a 4-paramater logistic equation. K, is determined from the IC50 using the Cheng-Prussoff equation and Kd determined by saturation binding. […]

T1 sequence (O14842 whole entry): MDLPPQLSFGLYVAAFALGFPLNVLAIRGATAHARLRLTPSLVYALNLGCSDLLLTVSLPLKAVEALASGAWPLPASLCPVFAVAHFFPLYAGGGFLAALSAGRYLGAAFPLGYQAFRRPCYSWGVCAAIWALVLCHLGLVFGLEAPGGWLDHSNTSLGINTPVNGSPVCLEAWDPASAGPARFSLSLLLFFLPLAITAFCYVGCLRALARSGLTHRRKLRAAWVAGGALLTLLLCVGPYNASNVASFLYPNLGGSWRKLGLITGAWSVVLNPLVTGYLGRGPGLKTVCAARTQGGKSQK

Broadly, the EC50 is the midpoint of the concentration-response curve. In the case of `CC#C[C@@H](CC(=O)O)c1ccc(OCc2ccc(CN3CCC4(C=Cc5ccccc54)CC3)s2)cc1` [Example 1, (3S)-3-[4-[[5-(Spiro[indene-1,4′-piperidine]-1′-ylmethyl)-2-thienyl]methoxy]phenyl]hex-4-ynoic acid], the concentration for a half-maximal effect (EC50) on human GPR40 (HEK293 cells over expressing human GPR40, intracellular calcium, FLIPR) amounted to 114 nM. The Percent efficacy at human GPR40 (maximal response compared to the natural ligand, linoleic acid) is on record as 91+/−9%. On PPARγ, the PPARγ binding result is given as “no binding is detected”.
